Values of other authors, collected in paper PMC4365270 (Cancer Chemotherapy and Pharmacology, 2015).

Set-up: method as in earlier work
Conditions: higher doses; cited from earlier work

## CC[C@H](NC(=O)[C@H](C)NC)C(=O)N1C[C@@H](O)C[C@H]1Cc1c(-c2[nH]c3cc(F)ccc3c2C[C@@H]2C[C@H](O)CN2C(=O)[C@H](CC)NC(=O)[C@H](C)NC)[nH]c2cc(F)ccc12 [birinapant]
  Bell’s Palsy syndrome: increased incidence
